# In US12187754B2, “LpxC inhibitors and uses thereof” (Blacksmith Medicines, Inc., priority 2021, dated 2025):
# Assays:
# Kinetic solubility = format: physicochemical
# Description: Solubility of the compounds was assessed in 10 mM phosphate-buffered saline (PBS) at pH 7 at final concentrations of 20, 40, and 50 mg/mL of test compound.
# Pharmacokinetics in dogs = format: in vivo; conditions: beagle, plasma, intravenous, oral; after 6 h, all routes and doses tested in dog; read-out: plasma concentration of prodrug Compound 1
# Description: (§1) Stock solutions of test compounds were prepared at 2.5 or 5.0 mg/mL in 10 mM PBS. Male Sprague-Dawley (SD) rats (n=3 per group) or beagle dogs (n=3 per group) were administered test compound by either IV or oral administration. For IV-administered compounds, a three hour infusion was used. For PO-administered compounds, a single bolus dose was used.
# (§2) After initiation of IV dosing (or after PO bolus dosing), whole blood samples were collected at 1, 3, 3.5, 4, 6, 8, and 24 hour timepoints. All samples were collected into Plasma K2-EDTA collection tubes and processed to separate plasma from red blood cells.
# (§3) Liquid chromatography-tandem mass spectrometry (LC-MS/MS) was used to analyze all plasma samples, with both the test compound and the active agent Compound A being quantified. The lower limit of quantitation (LLOQ) for both rats and dogs was 1 ng/mL.
# E. coli UTI 89 = experiment: Mouse urinary tract infection model, E. coli UTI 89; format: in vivo; conditions: for Bladder Terminal Burden / Kidney Terminal Burden / Urine Terminal Burden: mice, 96 h post infection; for bacterial burden in urine relative to vehicle-treated controls / bacterial burden in bladder relative to vehicle-treated controls / bacterial burden in kidney relative to vehicle-treated control / efficacy on bacterial burden in kidney: E. coli UTI 89, mice; for bacterial burden in bladder relative to vehicle-treated controls / bacterial burden in kidney relative to vehicle-treated control: IV administration; for efficacy on bacterial burden in kidney: PO administration
# Description: (§4) Compound A and its prodrugs as disclosed herein were tested in an in vivo mouse model for Urinary Tract Infection. Briefly, mice were infected with E. coli UTI 89 to cause a UTI infection and were treated with compounds disclosed herein.
# (§5) Five days prior to infection, C3H/HeNR female mice were preconditioned with drinking water containing 5% glucose. Mice were rendered unconscious using parenteral anaesthesia (ketamine/medetomidine) then 0.05 mL of a bacterial suspension of E. coli UTI 89 (1.2×10^9 CFU/mL (6.2×10^7 CFU/mouse) was administered transurethrally into the bladder to cause an ascending UTI infection.
# IV or PO treatment was started 24 h post infection with 3, 10, 15 mg/kg/dose IV Compound A; 3, 10, 15.30 mg/kg/dose IV Compound 1; 3, and 10 mg/kg/dose IV Compound 2; and 30 mg/kg/dose oral of either Compound 1 or 2 administered every 12 hours for 3 days (six doses total). Ciprofloxacin was given as a control at 10 mg/kg/dose IV every 12 hours. Compound A was formulated in 10% DMSO, 5% Cremophor, 85% SFI; the remaining compounds used a sterile phosphate-buffered saline (PBS) formulation. Each group was comprised of five mice each.
# (§6) Urine, bladder, and kidney were harvested at 24 h (pre-treatment group only) and 96 h post infection and quantitatively cultured.
# K. pneumoniae BAA-1705 = experiment: Mouse urinary tract infection model, K. pneumoniae BAA-1705; format: in vivo; conditions: for Bladder Terminal Burden / Kidney Terminal Burden / Urine Terminal Burden: mice, 96 hours; for bacterial burden in urine relative to vehicle-treated controls and the ciprofloxacin control: except for the 30 mg/kg IV Compound A experiment
# Description: as §4, §5
# […]; […]; […]; […] for 3 days (six doses total). Ciprofloxacin was given as a control at 10 mg/kg/dose IV every 12 hours. Compound A was formulated in 10% DMSO, 5% Cremophor, 85% SFI; the remaining compounds used a sterile phosphate-buffered saline (PBS) formulation. Each group was comprised of five mice each.
# as §6
# The experiment was repeated using K. pneumoniae BAA-1705 (MDR; MIC90 strain). Table 5 and FIG. 2 summarize the results, showing the average terminal burden of K. pneumoniae BAA-1705 in urine, bladder, and kidney at the conclusion of the study (96 hours).
# Pharmacokinetics in rats = format: in vivo, Male Sprague-Dawley (SD) rats; conditions: male, Sprague-Dawley, plasma, intravenous, oral; after 4 h, all routes and doses tested in rat; read-out: plasma concentration of prodrug Compound 1
# Description: as §1, §2, §3
# Thermal solubility = format: physicochemical; conditions: aqueous buffer, thermodynamic from solid; 100 mM potassium phosphate buffer pH 7.4, 24 h, 25° C.
# Description: Solubility of the compounds was assessed in 100 mM potassium phosphate buffer at pH 7.4 after 24 hours at room temperature.
# Accurately weighed K2HPO4 (2.79 g) and KH2PO4 (0.54 g) were dissolved in 90 mL of Milli-Q water and mixed well. Volume was made upto 200 mL with Milli-Q water and mixed well. The prepared phosphate buffer was stored at 2-8° C. and used within a month.
# Approximately 30 mg of test compound was added to approximately 1 mL of the potassium phosphate buffer, pH 7.4. If the visual inspection indicated precipitation, no further compound is added. If the visual inspection indicated a clear solution, further increments of compound were added until the solution was no longer clear.
# Test compounds and assay controls (caffeine) were further incubated for 24 h at 25° C. temperature on a thermomixer at a shaking speed of 1200 rpm. After incubation, the samples (200 μL) were transferred to a filtration plate to which a plate was attached at bottom for collecting the filtrate. The plate was centrifuged at 4000 rpm for 2 min and the filtrate was collected in the attached bottom plate. The filtrates were diluted using filtered buffer based on the initial amount of compound added. All samples were analysed by HPLC-UV method against 8 point calibration curve with concentrations ranging from 2.5 μg/mL to 1000 μg/mL.
# [1] = 20, 40, and 50 mg/mL in 10 mM PBS pH 7
# [2] = 3 mg/kg/dose IV every 12 hours for 3 days
# [3] = 10 mg/kg/dose IV every 12 hours for 3 days
# [4] = 15 mg/kg/dose IV every 12 hours for 3 days
# [5] = 30 mg/kg/dose PO every 12 hours for 3 days
Compound,appearance after vortex mixing (Kinetic solubility; [1]),Bladder Terminal Burden (E. coli UTI 89; [2]),Kidney Terminal Burden (E. coli UTI 89; [2]),Urine Terminal Burden (E. coli UTI 89; [2]),Bladder Terminal Burden (E. coli UTI 89; [3]),Kidney Terminal Burden (E. coli UTI 89; [3]),Urine Terminal Burden (E. coli UTI 89; [3]),Bladder Terminal Burden (E. coli UTI 89; [5]),Kidney Terminal Burden (E. coli UTI 89; [5]),Urine Terminal Burden (E. coli UTI 89; [5]),bacterial burden in urine relative to vehicle-treated controls (E. coli UTI 89),bacterial burden in bladder relative to vehicle-treated controls (E. coli UTI 89),bacterial burden in kidney relative to vehicle-treated control (E. coli UTI 89),efficacy on bacterial burden in kidney (E. coli UTI 89),"bacterial burden in kidney relative to vehicle-treated controls and the ciprofloxacin control (K. pneumoniae BAA-1705; K. pneumoniae BAA-1705, mice)","bacterial burden in urine relative to vehicle-treated controls and the ciprofloxacin control (K. pneumoniae BAA-1705; K. pneumoniae BAA-1705, mice)",solubility at 24 h (Thermal solubility) [µg/mL],further results
"N#CC1CN(C[C@@H](Cc2nc[nH]c(=O)c2OP(=O)(O)O)c2ccc(C#Cc3ccc(CN4CCOCC4)cc3)cc2)C1 [Compound 1, (S)-4-(3-(3-cyanoazetidin-1-yl)-2-(4-((4-(morpholinomethyl)phenyl)ethynyl)phenyl)propyl)-6-oxo-1,6-dihydropyrimidin-5-yl dihydrogen phosphate]",clear solutions,2.64 × 10^6 CFU/mL,4.74 × 10^4 CFU/mL,2.93 × 10^5 CFU/mL,5.05 × 10^5 CFU/mL,5.24 × 10^2 CFU/mL,9.40 × 10^3 CFU/mL,1.81 × 10^5 CFU/mL,4.04 × 10^2 CFU/mL,8.73 × 10^3 CFU/mL,statistically significant reductions in bacterial burden in urine,reductions in bacterial burden in bladder,statistically significant reductions in bacterial burden in kidney,efficacious,statistically significant reductions in bacterial burden in kidney,statistically significant reductions in bacterial burden in urine,≥ 3000,"solubility after storage (Kinetic solubility; 20, 40, and 50 mg/mL in 10 mM PBS pH 7, storage at 4° C. for 20 hours): remained soluble; concentration at 6 h (Pharmacokinetics in dogs): < 100 ng/mL; Bladder Terminal Burden (E. coli UTI 89; [4]): 9.57 × 10^4 CFU/mL; Kidney Terminal Burden (E. coli UTI 89; [4]): 1.28 × 10^2 CFU/mL; Urine Terminal Burden (E. coli UTI 89; [4]): 3.59 × 10^3 CFU/mL; Bladder Terminal Burden (K. pneumoniae BAA-1705; 11.5 mg/kg/dose IV): BLoD; Kidney Terminal Burden (K. pneumoniae BAA-1705; 11.5 mg/kg/dose IV): 1.72 × 10^1 CFU/mL; Urine Terminal Burden (K. pneumoniae BAA-1705; 11.5 mg/kg/dose IV): 2.15 × 10^1 CFU/mL; Bladder Terminal Burden (K. pneumoniae BAA-1705; 35 mg/kg/dose IV): BLoD; Kidney Terminal Burden (K. pneumoniae BAA-1705; 35 mg/kg/dose IV): BLoD; Urine Terminal Burden (K. pneumoniae BAA-1705; 35 mg/kg/dose IV): BLoD; Bladder Terminal Burden (K. pneumoniae BAA-1705; 69.5 mg/kg/dose IV): 4.58 × 10^0 CFU/mL; Kidney Terminal Burden (K. pneumoniae BAA-1705; 69.5 mg/kg/dose IV): BLoD; Urine Terminal Burden (K. pneumoniae BAA-1705; 69.5 mg/kg/dose IV): BLoD; Bladder Terminal Burden (K. pneumoniae BAA-1705; 104.5 mg/kg/dose PO): BLoD; Kidney Terminal Burden (K. pneumoniae BAA-1705; 104.5 mg/kg/dose PO): BLoD; Urine Terminal Burden (K. pneumoniae BAA-1705; 104.5 mg/kg/dose PO): 2.51 × 10^0 CFU/mL; bacterial loads in kidney (K. pneumoniae BAA-1705; K. pneumoniae BAA-1705, mice, all routes of administration): below the limit of detection; concentration at 4 h (Pharmacokinetics in rats): < 100 ng/mL"
"O=C(O)c1cn(C2CC2)c2cc(N3CCNCC3)c(F)cc2c1=O [Ciprofloxacin, reference compound]",–,–,–,–,2.85 × 10^5 CFU/mL,1.88 × 10^2 CFU/mL,5.07 × 10^2 CFU/mL,–,–,–,–,–,–,–,–,–,–,Bladder Terminal Burden (K. pneumoniae BAA-1705; 10 mg/kg/dose IV): 2.27 × 10^1 CFU/mL; Kidney Terminal Burden (K. pneumoniae BAA-1705; 10 mg/kg/dose IV): 1.88 × 10^3 CFU/mL; Urine Terminal Burden (K. pneumoniae BAA-1705; 10 mg/kg/dose IV): 1.78 × 10^2 CFU/mL; Bladder Terminal Burden (K. pneumoniae BAA-1705; 10 mg/kg/dose PO): 4.05 × 10^2 CFU/mL; Kidney Terminal Burden (K. pneumoniae BAA-1705; 10 mg/kg/dose PO): 2.59 × 10^4 CFU/mL; Urine Terminal Burden (K. pneumoniae BAA-1705; 10 mg/kg/dose PO): 9.71 × 10^2 CFU/mL
"N#CC1CN(C[C@@H](Cc2nc[nH]c(=O)c2OCOP(=O)(O)O)c2ccc(C#Cc3ccc(CN4CCOCC4)cc3)cc2)C1 [Compound 2, (S)-((4-(3-(3-cyanoazetidin-1-yl)-2-(4-((4-(morpholinomethyl)phenyl)ethynyl)phenyl)propyl)-6-oxo-1,6-dihydropyrimidin-5-yl)oxy)methyl dihydrogen phosphate]",milky suspensions,5.15 × 10^5 CFU/mL,2.52 × 10^3 CFU/mL,4.69 × 10^4 CFU/mL,1.17 × 10^6 CFU/mL,9.67 × 10^2 CFU/mL,2.73 × 10^4 CFU/mL,2.82 × 10^5 CFU/mL,3.81 × 10^2 CFU/mL,3.41 × 10^3 CFU/mL,statistically significant reductions in bacterial burden in urine,reductions in bacterial burden in bladder,statistically significant reductions in bacterial burden in kidney,efficacious,statistically significant reductions in bacterial burden in kidney,statistically significant reductions in bacterial burden in urine,≥ 3000,"appearance after sonication (Kinetic solubility; 20, 40, and 50 mg/mL in 10 mM PBS, sonication in 40° C. water bath for 30 min): no change in appearance; appearance after treatment with 1M HCL (Kinetic solubility; 20, 40, and 50 mg/mL, final pH of 4, 10 seconds of vortexing): Clear solutions; appearance after addition of 1M NaOH (Kinetic solubility; 20, 40, and 50 mg/mL, final pH of 7, 10 seconds of vortexing): clear solutions"
